Test results reported in ChEMBL document CHEMBL6114977, “Identification and optimization of a small molecule inhibitor of the ovarian tumor protease of the Crimean-Congo hemorrhagic fever virus” (Bioorg Med Chem, 2025).
The source made the active and inactive calls. The rule behind the calls is not given here.

What was measured:
[1] = target: T1, RNA-directed RNA polymerase L (Crimean-Congo hemorrhagic fever virus, UniProt Q6TQR6); assay: (§1) Inhibition of CCHF OTU (ovarian tumor) protease (1 to 169 residues) extracted from Escherichia coli BL21 (DE3) cells using ubiquitin rhodamine 110 as substrate incubated for 30 mins by fluorescence based SynergyH1 plate reader analysis
T1 sequence (Q6TQR6 whole entry, the tested form may be a part): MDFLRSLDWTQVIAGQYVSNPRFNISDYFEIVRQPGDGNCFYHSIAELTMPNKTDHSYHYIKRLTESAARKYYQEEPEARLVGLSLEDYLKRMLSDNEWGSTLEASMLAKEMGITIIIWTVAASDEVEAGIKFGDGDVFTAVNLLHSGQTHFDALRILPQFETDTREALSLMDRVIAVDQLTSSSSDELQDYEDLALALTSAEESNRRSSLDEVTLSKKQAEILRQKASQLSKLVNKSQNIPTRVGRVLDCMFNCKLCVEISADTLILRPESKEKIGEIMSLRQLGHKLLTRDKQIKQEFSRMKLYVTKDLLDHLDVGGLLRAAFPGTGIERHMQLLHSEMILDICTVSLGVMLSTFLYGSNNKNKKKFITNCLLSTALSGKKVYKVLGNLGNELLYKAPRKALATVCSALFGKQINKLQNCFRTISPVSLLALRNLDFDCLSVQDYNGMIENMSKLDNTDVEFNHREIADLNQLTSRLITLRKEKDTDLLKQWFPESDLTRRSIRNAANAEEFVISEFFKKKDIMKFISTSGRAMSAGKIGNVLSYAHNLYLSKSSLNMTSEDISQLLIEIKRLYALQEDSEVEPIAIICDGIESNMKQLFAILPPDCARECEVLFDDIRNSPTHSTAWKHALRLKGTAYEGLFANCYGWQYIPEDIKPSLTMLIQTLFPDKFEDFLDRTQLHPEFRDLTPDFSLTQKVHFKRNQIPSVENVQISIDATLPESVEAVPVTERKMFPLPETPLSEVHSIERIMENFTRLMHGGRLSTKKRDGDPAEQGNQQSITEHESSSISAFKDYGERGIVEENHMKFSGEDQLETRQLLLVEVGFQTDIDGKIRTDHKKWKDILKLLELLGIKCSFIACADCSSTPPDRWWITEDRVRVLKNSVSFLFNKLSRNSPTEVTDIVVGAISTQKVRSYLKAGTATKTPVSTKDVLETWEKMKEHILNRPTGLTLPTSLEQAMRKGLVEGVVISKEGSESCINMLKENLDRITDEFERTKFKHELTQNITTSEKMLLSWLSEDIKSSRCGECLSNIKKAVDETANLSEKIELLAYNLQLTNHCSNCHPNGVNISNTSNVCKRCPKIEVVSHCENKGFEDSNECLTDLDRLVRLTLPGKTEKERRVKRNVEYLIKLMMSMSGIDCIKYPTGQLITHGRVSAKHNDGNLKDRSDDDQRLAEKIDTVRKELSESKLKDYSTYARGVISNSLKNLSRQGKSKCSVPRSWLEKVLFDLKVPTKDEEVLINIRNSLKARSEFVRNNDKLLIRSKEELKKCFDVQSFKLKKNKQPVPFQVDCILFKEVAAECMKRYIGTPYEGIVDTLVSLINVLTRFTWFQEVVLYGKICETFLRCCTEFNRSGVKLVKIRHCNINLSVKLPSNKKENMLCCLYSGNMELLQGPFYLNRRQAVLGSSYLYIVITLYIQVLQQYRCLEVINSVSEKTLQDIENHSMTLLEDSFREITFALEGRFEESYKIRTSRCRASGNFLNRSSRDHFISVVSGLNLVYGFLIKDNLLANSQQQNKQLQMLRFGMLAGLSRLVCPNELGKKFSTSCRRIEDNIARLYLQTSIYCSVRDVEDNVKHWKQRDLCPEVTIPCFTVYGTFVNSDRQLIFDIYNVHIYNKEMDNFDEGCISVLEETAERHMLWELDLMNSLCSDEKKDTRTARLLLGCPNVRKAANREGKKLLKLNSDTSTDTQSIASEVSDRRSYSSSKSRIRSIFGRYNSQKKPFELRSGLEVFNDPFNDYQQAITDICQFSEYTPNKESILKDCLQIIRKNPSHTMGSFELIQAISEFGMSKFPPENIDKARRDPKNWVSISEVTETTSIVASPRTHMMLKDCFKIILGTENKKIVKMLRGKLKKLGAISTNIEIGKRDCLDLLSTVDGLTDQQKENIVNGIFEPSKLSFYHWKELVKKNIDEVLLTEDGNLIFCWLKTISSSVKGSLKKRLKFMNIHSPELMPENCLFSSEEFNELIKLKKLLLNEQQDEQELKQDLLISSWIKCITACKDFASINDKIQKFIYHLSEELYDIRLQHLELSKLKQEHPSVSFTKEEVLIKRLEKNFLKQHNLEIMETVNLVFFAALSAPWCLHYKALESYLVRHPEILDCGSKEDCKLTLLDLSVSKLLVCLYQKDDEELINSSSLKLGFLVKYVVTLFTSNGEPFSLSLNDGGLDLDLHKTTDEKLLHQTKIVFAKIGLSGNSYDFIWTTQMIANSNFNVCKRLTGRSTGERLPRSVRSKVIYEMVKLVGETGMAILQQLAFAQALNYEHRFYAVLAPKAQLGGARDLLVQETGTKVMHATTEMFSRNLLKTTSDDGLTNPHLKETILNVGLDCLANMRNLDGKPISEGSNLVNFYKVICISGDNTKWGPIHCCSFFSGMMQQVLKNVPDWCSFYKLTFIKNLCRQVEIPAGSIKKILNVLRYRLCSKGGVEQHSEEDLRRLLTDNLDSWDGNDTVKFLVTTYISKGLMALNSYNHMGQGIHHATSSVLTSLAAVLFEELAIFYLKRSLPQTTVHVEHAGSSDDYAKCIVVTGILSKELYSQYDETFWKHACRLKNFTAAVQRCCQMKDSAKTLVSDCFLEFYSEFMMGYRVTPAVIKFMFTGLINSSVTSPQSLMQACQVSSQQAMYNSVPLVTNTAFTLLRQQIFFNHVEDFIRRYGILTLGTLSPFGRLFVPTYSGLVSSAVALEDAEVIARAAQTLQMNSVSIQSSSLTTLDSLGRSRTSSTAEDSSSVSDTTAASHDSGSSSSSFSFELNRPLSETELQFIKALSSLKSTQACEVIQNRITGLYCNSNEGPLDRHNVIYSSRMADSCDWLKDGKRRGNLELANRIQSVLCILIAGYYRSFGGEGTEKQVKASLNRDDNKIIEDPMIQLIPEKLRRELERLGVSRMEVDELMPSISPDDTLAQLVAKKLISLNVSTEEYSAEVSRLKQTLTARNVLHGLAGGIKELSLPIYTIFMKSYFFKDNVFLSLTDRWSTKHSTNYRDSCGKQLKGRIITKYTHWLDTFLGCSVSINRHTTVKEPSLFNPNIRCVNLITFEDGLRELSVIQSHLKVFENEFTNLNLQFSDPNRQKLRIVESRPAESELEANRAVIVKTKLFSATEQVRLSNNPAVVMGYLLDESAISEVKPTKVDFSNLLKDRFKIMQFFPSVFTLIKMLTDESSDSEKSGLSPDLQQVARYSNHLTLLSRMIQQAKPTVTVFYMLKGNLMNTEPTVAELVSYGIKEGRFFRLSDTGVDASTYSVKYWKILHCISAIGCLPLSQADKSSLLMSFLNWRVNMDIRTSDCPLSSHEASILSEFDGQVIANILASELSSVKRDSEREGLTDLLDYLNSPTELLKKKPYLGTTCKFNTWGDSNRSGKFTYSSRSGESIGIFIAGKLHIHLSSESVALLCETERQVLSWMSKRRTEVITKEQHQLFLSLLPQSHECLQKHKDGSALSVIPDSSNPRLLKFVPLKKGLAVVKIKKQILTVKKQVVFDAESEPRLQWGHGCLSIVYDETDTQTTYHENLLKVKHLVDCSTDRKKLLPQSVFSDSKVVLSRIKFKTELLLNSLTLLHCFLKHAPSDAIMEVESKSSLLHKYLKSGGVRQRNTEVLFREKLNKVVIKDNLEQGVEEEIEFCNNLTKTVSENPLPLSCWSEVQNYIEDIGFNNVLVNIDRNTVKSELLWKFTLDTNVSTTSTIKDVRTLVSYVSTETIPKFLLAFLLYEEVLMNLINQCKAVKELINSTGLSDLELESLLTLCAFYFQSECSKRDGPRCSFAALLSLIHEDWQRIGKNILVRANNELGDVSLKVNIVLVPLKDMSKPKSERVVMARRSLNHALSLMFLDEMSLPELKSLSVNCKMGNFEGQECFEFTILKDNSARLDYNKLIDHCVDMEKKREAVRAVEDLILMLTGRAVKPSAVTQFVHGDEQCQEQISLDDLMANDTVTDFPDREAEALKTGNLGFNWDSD

[2] = target: T1, RNA-directed RNA polymerase L; assay: Inhibition of CCHF OTU (ovarian tumor) protease (1 to 169 residues) extracted from Escherichia coli BL21 (DE3) cells assessed as inhibition constant by fluorescence based SynergyH1 plate reader analysis
[3] = tested on: Fc1cc(Nc2nc(-c3ccc(C(F)(F)F)cc3)cs2)ccc1-c1nnn[nH]1; assay: Competitive inhibition of CCHF OTU (ovarian tumor) protease (1 to 169 residues) extracted from Escherichia coli BL21 (DE3) cells using ubiquitin rhodamine 110 as substrate assessed as Km by Michaelis-Menten analysis (reference value: 31.6 nM); settings: Crimean-Congo hemorrhagic fever virus
[4] = target: Ubiquitin carboxyl-terminal hydrolase 7 (Homo sapiens) (UniProt Q93009); assay: Inhibition of human USP7 using ubiquitin rhodamine 110 as substrate at 50 uM incubated for 30 mins by fluorescence based SynergyH1 plate reader analysis
Chain of Ubiquitin carboxyl-terminal hydrolase 7 (Homo sapiens) (Q93009 whole entry, looked up): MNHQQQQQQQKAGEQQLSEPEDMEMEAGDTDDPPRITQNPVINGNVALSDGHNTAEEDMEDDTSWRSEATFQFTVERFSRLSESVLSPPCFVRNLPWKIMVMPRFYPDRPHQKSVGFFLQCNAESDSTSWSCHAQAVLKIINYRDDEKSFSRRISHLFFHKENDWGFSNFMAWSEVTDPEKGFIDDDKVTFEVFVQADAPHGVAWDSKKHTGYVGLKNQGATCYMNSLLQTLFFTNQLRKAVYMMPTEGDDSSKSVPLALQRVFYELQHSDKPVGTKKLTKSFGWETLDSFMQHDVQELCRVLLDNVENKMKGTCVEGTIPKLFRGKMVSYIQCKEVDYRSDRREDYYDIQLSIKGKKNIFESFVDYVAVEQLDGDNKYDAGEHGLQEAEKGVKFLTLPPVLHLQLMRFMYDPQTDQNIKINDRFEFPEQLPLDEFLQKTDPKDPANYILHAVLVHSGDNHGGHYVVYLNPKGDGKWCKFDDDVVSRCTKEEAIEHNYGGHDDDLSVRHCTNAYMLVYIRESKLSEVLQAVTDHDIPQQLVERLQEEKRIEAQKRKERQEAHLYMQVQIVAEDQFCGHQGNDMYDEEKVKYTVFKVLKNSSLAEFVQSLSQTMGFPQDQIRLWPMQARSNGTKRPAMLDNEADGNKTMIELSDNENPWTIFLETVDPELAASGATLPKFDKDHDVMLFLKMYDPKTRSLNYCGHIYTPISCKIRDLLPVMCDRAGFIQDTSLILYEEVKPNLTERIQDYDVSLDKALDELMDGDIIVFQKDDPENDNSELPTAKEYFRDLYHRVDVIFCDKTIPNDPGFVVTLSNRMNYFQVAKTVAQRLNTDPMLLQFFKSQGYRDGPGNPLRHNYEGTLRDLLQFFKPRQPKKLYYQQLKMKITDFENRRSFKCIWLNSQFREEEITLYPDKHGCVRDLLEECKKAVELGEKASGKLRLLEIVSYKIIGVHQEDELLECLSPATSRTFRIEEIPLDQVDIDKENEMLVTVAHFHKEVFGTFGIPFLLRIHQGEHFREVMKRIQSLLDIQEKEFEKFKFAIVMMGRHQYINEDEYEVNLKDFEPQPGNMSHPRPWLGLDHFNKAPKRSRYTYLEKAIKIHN

[5] = target: T2, Ubiquitin carboxyl-terminal hydrolase isozyme L5 (Homo sapiens) (UniProt Q9Y5K5); assay: Inhibition of human UCHL5 using ubiquitin rhodamine 110 as substrate at 50 uM incubated for 30 mins by fluorescence based SynergyH1 plate reader analysis
T2 sequence (whole entry): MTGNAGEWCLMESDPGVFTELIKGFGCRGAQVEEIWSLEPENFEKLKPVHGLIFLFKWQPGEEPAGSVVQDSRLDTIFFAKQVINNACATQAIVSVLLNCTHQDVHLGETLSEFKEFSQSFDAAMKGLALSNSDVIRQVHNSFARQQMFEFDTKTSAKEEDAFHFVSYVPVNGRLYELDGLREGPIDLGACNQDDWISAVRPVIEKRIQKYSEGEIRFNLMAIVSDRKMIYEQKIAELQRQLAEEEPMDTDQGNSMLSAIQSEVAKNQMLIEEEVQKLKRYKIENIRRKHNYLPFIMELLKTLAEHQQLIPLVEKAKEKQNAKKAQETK

[6] = target: T3, OTU domain-containing protein 1 (Homo sapiens) (UniProt Q5VV17); assay: Inhibition of human OTUD1 using ubiquitin rhodamine 110 as substrate at 50 uM incubated for 30 mins by fluorescence based SynergyH1 plate reader analysis
T3 sequence (whole entry): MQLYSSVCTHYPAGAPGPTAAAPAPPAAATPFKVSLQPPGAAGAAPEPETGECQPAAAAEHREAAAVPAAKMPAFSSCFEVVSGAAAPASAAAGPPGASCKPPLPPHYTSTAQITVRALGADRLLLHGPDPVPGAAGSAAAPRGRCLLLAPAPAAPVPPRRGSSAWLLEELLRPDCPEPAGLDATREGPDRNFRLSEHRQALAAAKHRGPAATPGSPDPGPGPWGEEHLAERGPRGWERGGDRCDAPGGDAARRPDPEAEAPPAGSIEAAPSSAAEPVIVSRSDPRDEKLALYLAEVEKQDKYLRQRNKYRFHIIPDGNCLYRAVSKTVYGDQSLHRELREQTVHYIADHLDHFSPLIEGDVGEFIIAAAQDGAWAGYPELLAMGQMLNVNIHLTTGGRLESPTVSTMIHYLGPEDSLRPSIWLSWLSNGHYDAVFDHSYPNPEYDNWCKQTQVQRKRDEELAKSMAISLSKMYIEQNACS

[7] = target: T4, OTU domain-containing protein 7B (Homo sapiens) (UniProt Q6GQQ9); assay: Inhibition of human cezanne using ubiquitin rhodamine 110 as substrate at 50 uM incubated for 30 mins by fluorescence based SynergyH1 plate reader analysis
T4 sequence (whole entry): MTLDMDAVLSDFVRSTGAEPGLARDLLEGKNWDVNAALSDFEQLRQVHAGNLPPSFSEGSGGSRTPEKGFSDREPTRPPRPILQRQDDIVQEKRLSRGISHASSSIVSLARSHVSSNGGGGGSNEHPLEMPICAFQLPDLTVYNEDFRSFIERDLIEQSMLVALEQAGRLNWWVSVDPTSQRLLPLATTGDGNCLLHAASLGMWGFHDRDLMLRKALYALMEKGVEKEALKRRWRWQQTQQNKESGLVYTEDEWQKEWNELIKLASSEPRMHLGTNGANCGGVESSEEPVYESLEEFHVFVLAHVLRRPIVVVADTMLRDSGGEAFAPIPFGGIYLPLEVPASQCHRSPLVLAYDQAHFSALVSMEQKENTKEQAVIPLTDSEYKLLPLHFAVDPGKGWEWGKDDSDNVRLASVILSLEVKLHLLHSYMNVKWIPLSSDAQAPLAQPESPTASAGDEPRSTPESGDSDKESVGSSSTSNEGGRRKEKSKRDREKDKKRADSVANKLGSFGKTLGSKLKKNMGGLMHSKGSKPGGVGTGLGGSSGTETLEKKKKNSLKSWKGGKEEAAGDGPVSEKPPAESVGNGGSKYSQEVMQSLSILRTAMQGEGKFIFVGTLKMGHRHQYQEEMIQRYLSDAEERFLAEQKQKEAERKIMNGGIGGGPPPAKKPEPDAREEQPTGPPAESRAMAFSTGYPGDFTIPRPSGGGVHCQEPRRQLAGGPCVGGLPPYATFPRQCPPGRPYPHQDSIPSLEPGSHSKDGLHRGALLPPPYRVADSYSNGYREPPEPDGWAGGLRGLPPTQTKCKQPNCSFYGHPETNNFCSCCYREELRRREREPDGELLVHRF

[8] = target: RNA-directed RNA polymerase L (Crimean-Congo hemorrhagic fever virus) (UniProt Q6TQR6); assay: as §1

Compound | IC50 [1] | Ki [2] | other results
Cc1cc(NS(=O)(=O)c2ccc(Nc3nc(-c4ccc(F)cc4)cs3)cc2)no1 | 86 µM | 52.7 µM | –
COc1ccc(-c2csc(Nc3ccc(S(=O)(=O)Nc4cc(C)on4)cc3)n2)cc1 | > 100 µM | – | –
COc1ccccc1-c1csc(Nc2ccc(S(=O)(=O)Nc3cc(C)on3)cc2)n1 | > 100 µM | – | –
RNA-directed RNA polymerase L (Crimean-Congo hemorrhagic fever virus), Q6TQR6 | – | – | Km [3]: 0.264 µM
Cc1cc(Nc2nc(-c3ccc(C(F)(F)F)cc3)cs2)ccc1-c1nnn[nH]1 | 20 µM | 12.2 µM | –
NS(=O)(=O)c1ccc(Nc2nc(-c3ccc(C(F)(F)F)cc3)cs2)cc1 | > 100 µM | – | –
Cc1cc(NS(=O)(=O)c2ccc(Nc3nc(-c4cccc(C(F)(F)F)c4)cs3)cc2)no1 | > 100 µM | – | –
FC(F)(F)c1ccc(-c2csc(Nc3ccc(-c4nnn[nH]4)nc3)n2)cc1 | > 100 µM | – | –
CN(c1ccc(-c2nnn[nH]2)cc1)c1nc(-c2ccc(C(F)(F)F)cc2)cs1 | 19 µM | 11.6 µM | –
COc1cc(-c2nnn[nH]2)ccc1Nc1nc(-c2ccc(C(F)(F)F)cc2)cs1 | 29.8 µM | 18.2 µM | inhibition [4]: Active
Cc1cc(NS(=O)(=O)c2ccc(Nc3nc(-c4ccc(Cl)cc4)cs3)cc2)no1 | 62.9 µM | 38.5 µM | –
Cc1cc(NS(=O)(=O)c2ccc(Nc3nc(-c4cccc(F)c4)cs3)cc2)no1 | > 100 µM | – | –
Cc1cc(NS(=O)(=O)c2ccc(Nc3nc(-c4ccc(OC(F)(F)F)cc4)cs3)cc2)no1 | > 100 µM | – | –
Cc1cc(NS(=O)(=O)c2ccc(Nc3nc(-c4ccccn4)cs3)cc2)no1 | > 100 µM | – | –
N#Cc1ccc(Nc2nc(-c3ccc(C(F)(F)F)cc3)cs2)cc1 | > 100 µM | – | –
FC(F)(F)c1ccc(-c2csc(Nc3ccc(-c4nnn[nH]4)c(Cl)c3)n2)cc1 | 11.9 µM | 7.3 µM | inhibition [4]: Active; inhibition [5]: Active; inhibition [6]: Active; inhibition [7]: Active
FC(F)(F)c1ccc(-c2csc(Nc3ccc(-n4cnnn4)cc3)n2)cc1 | > 100 µM | – | –
FC(F)(F)c1ccc(-c2ccnc(Nc3ccc(-c4nnn[nH]4)cc3)n2)cc1 | 38.4 µM | 23.5 µM | inhibition [4]: Active
COc1cccc(-c2csc(Nc3ccc(S(=O)(=O)Nc4cc(C)on4)cc3)n2)c1 | > 100 µM | – | –
FC(F)(F)c1ccc(-c2csc(Nc3ccc(-c4nnn[nH]4)c4c3CCC4)n2)cc1 | 17.3 µM | 10.6 µM | inhibition [4]: Active

Compound | IC50 [1] | Ki [2] | other results
FC(F)(F)c1ccc(-c2coc(Nc3ccc(-c4nnn[nH]4)cc3)n2)cc1 | 18.2 µM | 11.1 µM | inhibition [4]: Active
Cc1cc(NS(=O)(=O)c2ccc(Nc3nc(-c4ccc(O)cc4)cs3)cc2)no1 | > 100 µM | – | –
FC(F)(F)c1ccc(-c2csc(Nc3ccc(-c4nnn[nH]4)cn3)n2)cc1 | 18.2 µM | 11.1 µM | inhibition [4]: Active
Cc1cc(NS(=O)(=O)c2ccc(Nc3nc(-c4ccccc4Cl)cs3)cc2)no1 | > 100 µM | – | –
Cc1cc(NS(=O)(=O)c2ccc(Nc3nc(-c4ccc(Br)cc4)cs3)cc2)no1 | 54.3 µM | 33.2 µM | –
O=S(=O)(O)c1ccc(Nc2nc(-c3ccc(C(F)(F)F)cc3)cs2)cc1 | 41.8 µM | 25.6 µM | –
Cc1cc(NS(=O)(=O)c2ccc(Nc3nc(-c4ccccc4)cs3)cc2)no1 | > 100 µM | – | –
Cc1cc(NS(=O)(=O)c2ccc(Nc3nc(-c4ccc(C(F)(F)F)cc4)cs3)cc2)no1 | 51 µM | 31.2 µM | –
Fc1cc(Nc2nc(-c3ccc(C(F)(F)F)cc3)cs2)ccc1-c1nnn[nH]1 | 10.7 µM | 6.6 µM | inhibition [4]: Active; inhibition [5]: Active; inhibition [6]: Active; inhibition [7]: Active
Cc1cc(NS(=O)(=O)c2ccc(Nc3nc(-c4ccc(C#N)cc4)cs3)cc2)no1 | > 100 µM | – | –
Cc1cc(NS(=O)(=O)c2ccc(Nc3nc(-c4cccnc4)cs3)cc2)no1 | > 100 µM | – | –
Cc1cc(-c2nnn[nH]2)ccc1Nc1nc(-c2ccc(C(F)(F)F)cc2)cs1 | 19.4 µM | 11.9 µM | inhibition [4]: Active
Cc1cc(NS(=O)(=O)c2ccc(Nc3nc(-c4ccccc4F)cs3)cc2)no1 | > 100 µM | – | –
FC(F)(F)c1ccc(-c2csc(Nc3ccc(-c4nnn[nH]4)cc3)n2)cc1 | 16.7 µM | 10.2 µM | inhibition [4]: Active
Cc1cc(NS(=O)(=O)c2ccc(Nc3nc(-c4ccc(O)cc4O)cs3)cc2)no1 | 42.3 µM | 25.9 µM | inhibition [8]: Dose-dependent-effect
O=C(O)Cc1ccc(Nc2nc(-c3ccc(C(F)(F)F)cc3)cs2)cc1 | > 100 µM | – | –
Cc1cc(NS(=O)(=O)c2ccc(Nc3nc(-c4ccccc4C(F)(F)F)cs3)cc2)no1 | > 100 µM | – | –
O=C(O)c1ccc(Nc2nc(-c3ccc(C(F)(F)F)cc3)cs2)cc1 | > 50 µM | – | –
FC(F)(F)c1ccc(-c2csc(Nc3ccc(-c4nnn[nH]4)c(C(F)(F)F)c3)n2)cc1 | 12.8 µM | 7.8 µM | inhibition [4]: Active; inhibition [5]: Active; inhibition [6]: Active; inhibition [7]: Active
